Active and inactive are the calls of the source. The rule behind the calls is not given here.
Tested on: B16-F10
Assay: Inhibition of alpha-MSH-induced melanogenesis in mouse B16F10 cells at 10 uM after 3 days by spectrophotometric analysis relative to control
Format: functional
Details: B16-F10, 72 h
In the case of `O=C(c1noc2c1CCCCC2)N1CCN(c2ccc3c(c2)OCCO3)CC1`, the inhibition at 10 µM is reported as < 5%.
`O=C(c1noc2c1CCCCC2)N1CCN(c2ncccn2)CC1` gave an inhibition at 10 µM of 8%.
For `COc1ccc(N2CCN(C(=O)c3noc4c3CCCCC4)CC2)cc1`, the inhibition at 10 µM was 92%.
In the case of `CCCc1ccc(N2CCCN(C(=O)c3noc4c3CCCCC4)CC2)cc1`, the inhibition at 10 µM is reported as 95%.
For `Cc1ccc(N2CCN(C(=O)c3noc4c3CCCCC4)CC2)cc1`, the inhibition at 10 µM was < 5%.
In the case of `COc1cccc(N2CCN(C(=O)c3noc4c3CCCCC4)CC2)c1`, the inhibition at 10 µM is reported as < 5%.
For `COc1ccc(CN2CCN(C(=O)c3noc4c3CCCCC4)CC2)cc1`, the inhibition at 10 µM was < 5%.
With `CCCc1ccc(N2CCN(C(=O)c3noc4c3CCCCC4)CC2)cc1` the inhibition at 10 µM was 56%.
`CCOc1ccc(N2CCN(C(=O)c3noc4c3CCCCC4)CC2)cc1` showed an inhibition at 10 µM of 90%.
`O=C(c1noc2c1CCCCC2)N1CCN(c2ccc(Cl)cc2)CC1` gave an inhibition at 10 µM of 7%.
Work on `CCCOc1ccc(N2CCN(C(=O)c3noc4c3CCCCC4)CC2)cc1` yielded an inhibition at 10 µM of 38%.
Compound `COc1ccc(N2CCCN(C(=O)c3noc4c3CCCCC4)CC2)cc1` has an inhibition at 10 µM of 30%.
In the case of `O=C(c1noc2c1CCCCC2)N1CCN(c2ccc(O)cc2)CC1`, the inhibition at 10 µM is reported as 89%.
For `O=C(c1noc2c1CCCCC2)N1CCN(c2ccc(F)cc2)CC1`, the inhibition at 10 µM was < 5%.

Tested on: B16-F10
Assay: Inhibition of alpha-MSH-induced melanogenesis in mouse B16F10 cells at 1 uM after 3 days by spectrophotometric analysis relative to control
Format: functional
Details: B16-F10, 72 h
`O=C(c1noc2c1CCCCC2)N1CCN(c2ncccn2)CC1` gave an inhibition at 1 µM of 11%.
`COc1ccc(N2CCN(C(=O)c3noc4c3CCCCC4)CC2)cc1` gave an inhibition at 1 µM of 42%.
In the case of `CCCc1ccc(N2CCCN(C(=O)c3noc4c3CCCCC4)CC2)cc1`, the inhibition at 1 µM is reported as 15%.
In the case of `COc1ccc(CN2CCN(C(=O)c3noc4c3CCCCC4)CC2)cc1`, the inhibition at 1 µM is reported as < 5%.
`CCCc1ccc(N2CCN(C(=O)c3noc4c3CCCCC4)CC2)cc1` gave an inhibition at 1 µM of 21%.
For `CCOc1ccc(N2CCN(C(=O)c3noc4c3CCCCC4)CC2)cc1`, the inhibition at 1 µM was 47%.
With `CCCOc1ccc(N2CCN(C(=O)c3noc4c3CCCCC4)CC2)cc1` the inhibition at 1 µM was 34%.
In the case of `O=C(c1noc2c1CCCCC2)N1CCN(c2ccc(O)cc2)CC1`, the inhibition at 1 µM is reported as 47%.

Tested on: B16-F10
Assay: Inhibition of alpha-MSH-induced melanogenesis in mouse B16F10 cells after 3 days by spectrophotometric analysis
Format: functional, cell-based
Details: not given
For `COc1ccc(N2CCN(C(=O)c3noc4c3CCCCC4)CC2)cc1`, the inhibition was “Dose-dependent effect”.
In the case of `CCOc1ccc(N2CCN(C(=O)c3noc4c3CCCCC4)CC2)cc1`, the inhibition is reported as “Dose-dependent effect”.
For `O=C(c1noc2c1CCCCC2)N1CCN(c2ccc(O)cc2)CC1`, the inhibition was “Dose-dependent effect”.

Same assay, conditions: B16-F10, 72 h
In the case of `COc1ccc(N2CCN(C(=O)c3noc4c3CCCCC4)CC2)cc1`, the IC50 is reported as 0.67 µM.
Compound `CCOc1ccc(N2CCN(C(=O)c3noc4c3CCCCC4)CC2)cc1` has an IC50 of 0.99 µM.
Work on `O=c1cc(CO)occ1O` [KOJIC ACID] yielded an IC50 of 84.5 µM.
For `O=C(c1noc2c1CCCCC2)N1CCN(c2ccc(O)cc2)CC1`, the IC50 was 1.01 µM.

Tested on: B16-F10
Assay: Ratio of kojic acid IC50 to compound IC50 for melanogenesis in mouse B16F10 cells
Format: functional
Details: not given
For `COc1ccc(N2CCN(C(=O)c3noc4c3CCCCC4)CC2)cc1`, the “Ratio IC50” value was 126.
In the case of `CCOc1ccc(N2CCN(C(=O)c3noc4c3CCCCC4)CC2)cc1`, the “Ratio IC50” value is reported as 85.
In the case of `O=C(c1noc2c1CCCCC2)N1CCN(c2ccc(O)cc2)CC1`, the “Ratio IC50” value is reported as 85.

Tested on: not listed separately
Assay: Inhibition of tyrosinase
Details: not given
For `O=C(c1noc2c1CCCCC2)N1CCN(c2ccc3c(c2)OCCO3)CC1`, the inhibition was “inactive”.
In the case of `O=C(c1noc2c1CCCCC2)N1CCN(c2ncccn2)CC1`, the inhibition is reported as “inactive”.
In the case of `COc1ccc(N2CCN(C(=O)c3noc4c3CCCCC4)CC2)cc1`, the inhibition is reported as “inactive”.
With `CCCc1ccc(N2CCCN(C(=O)c3noc4c3CCCCC4)CC2)cc1` the inhibition was “inactive”.
In the case of `Cc1ccc(N2CCN(C(=O)c3noc4c3CCCCC4)CC2)cc1`, the inhibition is reported as “inactive”.
In the case of `COc1cccc(N2CCN(C(=O)c3noc4c3CCCCC4)CC2)c1`, the inhibition is reported as “inactive”.
For `COc1ccc(CN2CCN(C(=O)c3noc4c3CCCCC4)CC2)cc1`, the inhibition was “inactive”.
With `CCCc1ccc(N2CCN(C(=O)c3noc4c3CCCCC4)CC2)cc1` the inhibition was “inactive”.
For `CCOc1ccc(N2CCN(C(=O)c3noc4c3CCCCC4)CC2)cc1`, the inhibition was “inactive”.
In the case of `O=C(c1noc2c1CCCCC2)N1CCN(c2ccc(Cl)cc2)CC1`, the inhibition is reported as “inactive”.
For `CCCOc1ccc(N2CCN(C(=O)c3noc4c3CCCCC4)CC2)cc1`, the inhibition was “inactive”.
In the case of `COc1ccc(N2CCCN(C(=O)c3noc4c3CCCCC4)CC2)cc1`, the inhibition is reported as “inactive”.
In the case of `O=C(c1noc2c1CCCCC2)N1CCN(c2ccc(O)cc2)CC1`, the inhibition is reported as “inactive”.
With `O=C(c1noc2c1CCCCC2)N1CCN(c2ccc(F)cc2)CC1` the inhibition was “inactive”.

Tested on: B16-F10
Assay: Downregulation of tyrosinase in mouse B16F10 cells assessed as tyrosinase protein expression level at 5 uM after 24 hrs by Western blot analysis relative to actin (reference value: 1.6)
Format: functional
Details: not given
With `CCOc1ccc(N2CCN(C(=O)c3noc4c3CCCCC4)CC2)cc1` the “fold change (FC)” value was 0.9.

Tested on: B16-F10
Assay: Downregulation of tyrosinase in mouse B16F10 cells assessed as tyrosinase protein expression level at 5 uM after 48 hrs by Western blot analysis relative to actin (reference value: 1.1)
Format: functional
Details: not given
With `CCOc1ccc(N2CCN(C(=O)c3noc4c3CCCCC4)CC2)cc1` the “fold change (FC)” value was 0.7.

Tested on: B16-F10
Assay: Cytotoxicity against mouse alpha-MSH-induced B16F10 cells at 0.31 to 20 uM after 3 days by trypan blue staining
Format: cell-based
Details: b16-f10, 72 h
In the case of `COc1ccc(N2CCN(C(=O)c3noc4c3CCCCC4)CC2)cc1`, the Activity is reported as “Non-toxic”.
In the case of `CCOc1ccc(N2CCN(C(=O)c3noc4c3CCCCC4)CC2)cc1`, the Activity is reported as “Non-toxic”.
With `O=C(c1noc2c1CCCCC2)N1CCN(c2ccc(O)cc2)CC1` the Activity was “Non-toxic”.
